Experimental data taken from US12043621B2, “Small molecule inhibitors of Interleukin-4” (Trustees of Boston University, priority 2020, dated 2024).
Like-named read-outs stand apart in the source and are kept apart here.

What was measured:
IL-4 = target: T1, IL-4 (Homo sapiens, UniProt P05112); experiment: HEK-Blue IL-4/IL-13 cell-based reporter (SEAP) IL-4 inhibition assay; settings: for Activity at 1 uM / Activity at 10 uM: percent activity in HEK-Blue IL-4/IL-13, in %; for reduction of IL-4 activity: at 50 μM, normalized to IL-4 with vehicle
T1 construct: purchased Acros Biosystems IL4-H4218; host or cells: HEK-293
T1 sequence (P05112 25-153): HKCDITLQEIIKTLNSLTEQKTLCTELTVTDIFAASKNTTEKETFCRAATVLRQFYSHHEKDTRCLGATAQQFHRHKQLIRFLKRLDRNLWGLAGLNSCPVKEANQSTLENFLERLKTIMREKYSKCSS
Protocol: HEK-Blue IL-4/IL-13 cells were purchased from Invivogen and maintained in DMEM complete with 10% fetal bovine serum, 10 μg/ml of blasticidin and 100 μg/ml of Zeocin, 100 μg/mL Normocin, and 100 U/mL-100 μg/mL Pen-Strep. Cells used for assays were between passages 12 and 18. […] HEK-Blue IL-4/IL-13 cells were trypsinized, spun down, and resuspended in DMEM with 10% heat-inactivated FBS, and 100 U/mL-100 μg/mL Pen-Strep at a concentration of 3.125E5/mL. 160 μL of the cell suspension was added to each well of a 96 well plate, avoiding the edges of the plate and equilibrated in an incubator for 1 hour. After 2 hours, 40 μL of the small molecule/IL-4 solution was added to each well. Each measurement performed in quadruplicate. Cells were incubated for 20 hours at 37° C./5% CO2. Quanti-Blue was prepared according to manufacture and 160 μL added to each well of a 96 well plate, avoiding edges. 40 μL of cell supernatant was added to each well and then incubated for 3 hours at 37° C. The optical density was then read at 650 nm with a Molecular Devices SpectraMax M5 Microplate Reader. Data was plotted and analyzed in GraphPad Prism 8.
HEK-Blue IL-4/IL-13 cells were purchased from Invivogen and maintained in DMEM complete with 10% fetal bovine serum, 10 μg/ml of blasticidin and 100 μg/ml of Zeocin, 100 μg/mL Normocin, and 100 U/mL-100 μg/mL Pen-Strep. Cells used for assays were between passages 12 and 18. Prior to screening small molecules, the SEAP production induced by IL-4 alone was tested in the cells (FIG. 13) and determined to be 0.3 ng/mL. The EC25 for the IL-4 induced SEAP production (0.1 ng/mL final well concentration) was chosen for running small molecule inhibition assays.
(§1) For screening small molecules, 25 µL of each molecule (FIG. 9) in DMEM with 4% DMSO was added to 25 μL of 1 ng/ml IL-4 in DMEM and incubated for 2 hours at 37° C. HEK-Blue IL-4/IL-13 cells were trypsinized, spun down, and resuspended in DMEM with 10% heat-inactivated FBS, and 100 U/mL-100 μg/mL Pen-Strep at a concentration of 3.125E5/mL. 160 μL of the cell suspension was added to each well of a 96 well plate, avoiding the edges of the plate and equilibrated in an incubator for 1 hour. After 2 hours, 40 μL of the small molecule/IL-4 solution was added to each well. Each measurement was performed in […]. Cells were incubated for 20 hours at 37° C./5% CO2. Quanti-Blue was prepared according to manufacture and 160 μL added to each well of a 96 well plate, avoiding edges. 40 μL of cell supernatant was added to each well and then incubated for 3 hours at 37° C. The optical density was then read at 650 nm with a Molecular Devices SpectraMax M5 Microplate Reader. Data was plotted and analyzed in GraphPad Prism 8.
HEK-Blue IL-4/IL-13 cells used to screen analogs of compound 52 from ACS Chemical Biology paper (also referred to herein as D9). Assay was run as described in Examples 2 and 3. All compounds were screened at 10 μM, 1 μM, and 250 nM in quadruplicate. The results are depicted in FIGS. 17-21.

[1] = tested on: HEK-Blue IL-4/IL-13 cells; experiment: HEK-Blue IL-4/IL-13 control: compounds alone without IL-4 (SEAP); assay type: cell-based; settings: cells with 100 μM compound, no IL-4
Protocol: as §1, with “For screening small molecules, 25 µL of each molecule (FIG. 9) in DMEM with 4% DMSO was added to 25 μL of 1 ng/ml IL-4 in DMEM and incubated for 2 hours at 37° C.” left out

>25 other proteins = experiment: SMM binding signatures versus >25 unrelated proteins; settings: compared to SMM binding signatures for >25 other proteins
Description: [formula] Where SNRi is the SNR value for a given feature, Mdn(SNR) is the median of the SNR values for all features in the subarray, and the MAD(SNR) is the […] absolute deviation of the SNR values for all features in the subarray. Assay positives with an average robust Z score greater than 1.645 (alpha=0.05) on duplicate slides were compared to both a counter screen for the detection antibody and a database representing >25 unique targets screened by SMM against the same chemical library to filter nonspecific binders. DSF

[2] = Example 2, quadruplicate, read-out: EC50 of IL-4 inhibition in HEK-Blue IL-4/IL-13 cells
[3] = Example 3, triplicate, read-out: EC50 of IL-4 inhibition in HEK-Blue IL-4/IL-13 cells

Compound	Activity at 1 uM (IL-4)	Activity at 10 uM (IL-4)	also measured
COc1ccc(-c2cc(-c3ccc(OC)c(O)c3)c(C#N)c(=O)[nH]2)cc1 [Compound 46]	17.94	13.16	–
N#Cc1c(-c2cccc(O)c2)cc(-c2cc(F)c(F)c(F)c2)[nH]c1=O [Compound 59]	88.75	32.37	–
COc1ccc(-c2cc(-c3ccc(O)cc3)c(C#N)c(=O)[nH]2)cc1 [Compound 44]	33.62	39.28	–
N#Cc1c(-c2cc(O)c(O)c(O)c2)cc(-c2ccc(F)cc2)nc1N [Compound 5]	84.76	93.86	–
Cc1ccc(-c2cc(-c3ccc(F)cc3)nc(N)c2C#N)o1 [Compound 9]	77.98	66.06	–
COc1ccc(-c2cc(-c3ccccc3)c(C#N)c(S)n2)cc1 [Compound 64]	17.08	16.53	–
N#Cc1c(-c2ccc(O)cc2)cc(-c2ccc(F)cc2)nc1N [Compound 17]	99.0184	52.77	–
COc1ccc(-c2cc(-c3cccc(O)c3)c(C#N)c(=O)[nH]2)cc1 [Compound 43]	112.2	35.73	–
COc1ccc(-c2cc(-c3ccccc3)c(C#N)c(SC)n2)cc1 [Compound 65]	95.33	20.54	–
COc1nc(-c2ccccc2)cc(-c2ccccc2)c1C#N [Compound 61]	96.92	39.64	–
Cc1ccc(-c2cc(-c3ccc(F)cc3)nc(N)c2C#N)s1 [Compound 11]	69.98	62.48	–
COc1ccc(-c2cc(-c3ccccc3)nc(Br)c2C#N)cc1 [Compound 62]	96.31	38.63	–
COc1ccc(-c2cc(-c3ccc(-c4ccccc4)cc3)[nH]c(=O)c2C#N)cc1O [Compound 53]	17.656	30.26	–
Cc1cc(-c2cc(-c3cccc(O)c3)c(C#N)c(=O)[nH]2)c(C)s1 [Compound 58]	85.76	39.79	–
COc1ccc(-c2cc(-c3ccccc3)c(C#N)c(=O)[nH]2)cc1 [Compound 34]	73.09	72.43	–
COc1ccc(-c2cc(-c3ccc4ccccc4c3)c(C#N)c(=O)[nH]2)cc1 [Compound 41]	62.288	48.23	–
COc1ccc(-c2cc(-c3ccc(C)o3)c(C#N)c(=O)[nH]2)cc1 [Compound 37]	89.04	99.52	–
N#Cc1c(-c2ccc(O)c(O)c2)cc(-c2ccc(F)cc2)nc1N [Compound 2]	64.46	4.2	–
N#Cc1c(-c2ccc(O)c(O)c2)cc(-c2ccc(N3CCCCC3)cc2)[nH]c1=O [Compound 56]	81.52	11.84	–
COc1ccc(-c2cc(-c3ccc(O)cc3)c(C#N)c(SC)n2)c(OC)c1 [Compound 66]	87.86	21.21	–
N#Cc1c(-c2ccccc2O)cc(-c2ccc(F)cc2)nc1N [Compound 15]	51.3773	1.218	–
COc1ccc(-c2cc(C3CCCOC3)c(C#N)c(=O)[nH]2)cc1 (stereo not shown) [Compound 36]	71.59	68.36	–
COc1ccc(-c2cc(-c3ccc(Cl)c(Cl)c3)c(C#N)c(=O)[nH]2)cc1 [Compound 32]	51.3	55.85	–
N#Cc1c(-c2ccccc2)cc(-c2ccccc2)nc1N1CCCCC1 [Compound 63]	95.46	40.44	–
COc1ccc(-c2cc(-c3cccnc3)nc(N)c2C#N)cc1O [Compound 25]	–	–	EC50 (IL-4; [2]): 21.7 µM; EC50 (IL-4; [3]): 7.6 µM; reduction of IL-4 activity (IL-4): 84.3%; Abs650 [1]: 0.0648 ± 0.0012; SMM binding selectivity (>25 other proteins): only bound to IL-4
COc1ccc(-c2cc(-c3ccc(O)c(OC)c3)c(C#N)c(=O)[nH]2)cc1 [Compound 45]	80.34	−2.843	–
COc1ccc(-c2cc(-c3ccc(OC)c(O)c3)c(C#N)c(N)n2)cc1 [Compound 30]	64.45	28.76	EC50 (IL-4; Table 3, read-out: EC50): 3.88 µM
N#Cc1c(-c2ccc(O)c(O)c2)cc(-c2ccc(F)cc2)nc1N [Compound 1, 2-amino-4-(3,4-dihydroxyphenyl)-6-(4-fluorophenyl)-nicotinonitrile]	71.73	2.405	EC50 (IL-4; [2]): 45.6 µM; EC50 (IL-4; [3]): 40 µM; EC50 (IL-4; Table 3, read-out: EC50): 1.56 µM; reduction of IL-4 activity (IL-4): 88.6%; Abs650 [1]: 0.0955 ± 0.0072; SMM binding selectivity (>25 other proteins): only bound to IL-4
Cn1ccc(-c2cc(-c3cccc(O)c3)c(C#N)c(=O)[nH]2)c1 [Compound 57]	94.4121	75.91	–
COc1ccc(-c2cc(-c3ccccc3O)c(C#N)c(=O)[nH]2)cc1 [Compound 42]	33.675	−0.3167	–
